# Data reported in patent US20090004145A1, “COMPOSITIONS AND METHODS INVOLVING GENE THERAPY AND PROTEASOME MODULATION” (priority 2006, published 2009).
# Where a SMILES comes first, the peptide text is derived from it. The star is where a group is joined. Cbz = O=C(OCc1ccccc1)*
# Columns and labels:
# Assay type in all cases: cell-based, human
# [1] = tested on: proteasome activity in 2008 cells; assay: Proteasome activity assay (commercially available kit) on cell lysates; conditions: 48 h
# Procedure: (§1) FIG. 11. Inhibition of the proteasomal activity by MG132 results in increased ubiquitinated MDA-7 protein expression in CDDP-sensitive tumor cells but not in CDDP-resistant tumor cells. FIG. 11A, CDDP-resistant (2008/C*13 R) and sensitive (2008) ovarian tumor cells were plated in six-well plates and were treated with PBS, MG132, Ad-mda7, or Ad-mda7 plus MG132. At 48 h after treatment cells were harvested, lysates and supernatants prepared and subjected to MDA-7 and total ubiquitinated protein detection by western blotting and proteasome activity assay using commercially available kit. […] However, the MDA-7 protein was increased in 2008 cells when treated with MG132 plus Ad-mda7. […] FIG. 11B, CDDP-resistant (2008/C*13 R) and sensitive (2008) ovarian tumor cells were plated in six-well plates and were treated with PBS, MG132, Ad-p53, or Ad-p53 plus MG132. At 48 h after treatment cells were harvested, lysates and supernatants prepared and subjected to p53 protein detection by western blotting and proteasome activity using commercially available kit. […] However, the p53 protein was increased in 2008 cells when treated with MG132 plus Ad-p53.
# FIG. 20. SiRNA-mediated inhibition of Beta-5 subunit expression of the 20S proteasome in CDDP-sensitive tumor cells abrogates proteasome activity. CDDP-sensitive (2008) ovarian tumor cells were plated in six-well plates. […]
# [2] = tested on: proteasome activity in 2008/C*13 R cells; assay: as above; conditions: 48 h
# [3] = tested on: total ubiquitinated proteins in 2008 cells; assay: Western blotting of total ubiquitinated proteins; conditions: 24 h
# Procedure: (§2) FIG. 9. CDDP-resistant tumor cells have more endogenous ubiquitinated proteins. CDDP-resistant (2008/C*13 R) and sensitive (2008) ovarian tumor cells were plated in six-well plates and were untreated or treated with MG132. Cells were harvested 24 h after treatment, total cell lysate prepared and subjected to western blotting. Membrane was probed with human anti-ubiquitinated antibody.
# as §2, with “CDDP-Resistant Tumor Cells Have More Endogenous Ubiquitinated Proteins.” for “FIG. 9. CDDP-resistant tumor cells have more endogenous ubiquitinated proteins.”, “antibody. […] (FIG. 9)” for “antibody.”
# [4] = tested on: MDA-7 protein in 2008 cells; assay: Western blotting of MDA-7 protein expression; conditions: 48 h, vs Ad-mda7 alone
# Procedure: as §1
# FIG. 18. […] CDDP-sensitive (2008) ovarian tumor cells were plated in six-well plates. […]
# FIG. 21. […] MDA-7 protein was detected in cells that were treated with Ad-mda7. […]
structure (smiles),measurement,setting,value
CC(C)C[C@@H](C=O)NC(=O)[C@H](CC(C)C)NC(=O)[C@H](CC(C)C)NC(=O)OCc1ccccc1 [MG132] (Cbz-Leu-Leu-Leu-aldehyde),inhibition of proteasome activity,[1]; FIG. 11A (Ad-mda7 experiment),60-65%
same,inhibition of proteasome activity,[1]; FIG. 11B (Ad-p53 experiment),60-65%
same,inhibition of proteasome activity,[2]; FIG. 11A (Ad-mda7 experiment),20%
same,inhibition of proteasome activity,[2]; FIG. 11B (Ad-p53 experiment),20%
same,total ubiquitinated protein levels,[3],greatly increased
same,MDA-7 protein expression with proteasome inhibitor,[4],significantly increased
